Counter-ions that a name gives are not always drawn.
Tests used:
recombinant CYP142A1 = recombinant CYP142A1 (Mycobacterium tuberculosis, UniProt P9WPL5); conditions: pH 7.4
[1] = tested on: CC(C)CCC[C@@H](C)[C@H]1CC[C@H]2[C@@H]3CCC4=CC(=O)CC[C@]4(C)[C@H]3CC[C@]12C; assay: purified protein, by the assay type; conditions: pH 7.5

Chain of recombinant CYP142A1 (P9WPL5 whole entry): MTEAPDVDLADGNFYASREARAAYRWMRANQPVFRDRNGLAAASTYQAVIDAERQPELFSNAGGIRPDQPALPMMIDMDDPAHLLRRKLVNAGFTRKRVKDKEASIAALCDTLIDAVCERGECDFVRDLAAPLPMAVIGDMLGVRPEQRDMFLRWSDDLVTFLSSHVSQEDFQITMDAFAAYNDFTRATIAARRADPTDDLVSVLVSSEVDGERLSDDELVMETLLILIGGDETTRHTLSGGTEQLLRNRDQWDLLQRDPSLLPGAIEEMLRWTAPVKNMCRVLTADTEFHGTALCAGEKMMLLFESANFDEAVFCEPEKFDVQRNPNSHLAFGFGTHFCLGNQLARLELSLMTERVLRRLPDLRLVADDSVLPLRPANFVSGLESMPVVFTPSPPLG

CC(C)CCC[C@@H](C)[C@H]1CC[C@H]2[C@@H]3CC=C4C[C@@H](OS(=O)(=O)O)CC[C@]4(C)[C@H]3CC[C@]12C [Cholesteryl sulfate]
Kd (recombinant CYP142A1): 27 ± 6.9 µM

(Mycobacterium tuberculosis H37Rv)
Km [1]: 35 ± 5.4 µM
kcat [1]: 0.128 ± 0.00717 s⁻¹

Cholesteryl propionate
Kd (recombinant CYP142A1): 45 ± 7 µM

Source: PMC9425443 (RSC Advances, 2022)
